In one data set the test system is boar spermatozoa. Briefly: Sperm motility inhibition assay (progressive and rapid motility). It counts as cell-based. The method, then: Furthermore, their physiological characters including their motility are influenced mainly by membrane potentials and ion fluxes. Thus, the change of sperm motility is able to sensitively indicate the substances causing mitochondrial membrane depolarization even at sublethal doses, which is undetectable with other cell lines. Motility of the spermatozoa was judged after exposure of 30 min and 24 h at room temperature with minor modification of a previously described method.
The sperm motility inhibition assay was done as reported by Andersson et al.. Commercial boar semen obtained from Figen Oy Finland extended in MR-A (Kubus, S.A., Madrid, Spain) containing 27 × 10^6 spermatozoa·mL^−1 was used. The purified OPA was diluted by serial dilutions in methanol obtaining two ranges of concentrations with 4-4 levels from 2500 μg mL^−1 to 250.0 μg mL^−1 and from 50 μg mL^−1 to 5.0 μg mL^−1, for short and long time exposures, respectively. Twenty μL of each dilution was administered to 2 mL of MR-A-diluted boar semen resulting approximately 100 times dilution of the original stock solutions; 20 μL of methanol was added to spermatozoa in the same way as a blank assay. The samples were incubated for 30 min and 24 h at room temperature for short and long term exposure assays, respectively. After exposure, motility was induced in the sperm cells by incubation in 37 °C for 5 min and shaking to provide the sperm cells with oxygen. […]
The above described subjective motility assay was calibrated with an automatic Hamilton Thorne sperm motility analyzer (HTM-S, ver. 7.2; Hamilton-Thorn Research, Danvers, MA, USA). […] Thus the protocol for assessing sperm tail beating as a measure of motility inhibition gave 99% similarity to measurements of the proportion of rapidly motile spermatozoa done with Hamilton Thorne sperm analyzer (HTM-S, ver. 7.2; Hamilton-Thorn Research, Danvers, MA, USA) Toxicity was expressed as the endpoint concentration of the OPA solution, where the progressive and rapid motility of the sperm cells were <50% of the vehicle exposed sperm cells. […]

A short description of data set [1]: Somatic cell toxicity assay (resazurin reduction), PK-15. It counts as cell-based, porcine. To be noted: pig, PK-15 cells (porcine kidney tubular epithelial cell line); read-out: Toxic endpoint EC50, Cytotoxicity, PK-15 cells. The method, then:
(§1) Viability assays, based on resazurin-resorufin transformation, represent excellent correlation to generally used reference assays, such as formazan- and tritiated thymidine based methods. In our experiments, proliferating murine neuroblastoma (MNA), feline fetus lung (FFL) and porcine kidney (PK-15) cells were treated with OPA. […] These values were remarkably less than the concentrations causing sperm toxicity and motility inhibition.
(§2) Cytotoxicity against somatic cells was tested with feline fetus lung cells (FFL) cultivated as described by Andersson et al. and murine neuroblastoma cells (MNA) as described by Kulonen et al. as well as porcine kidney tubular epithelial cell line (PK-15), cultured as reported earlier. All somatic cell lines were maintained in an atmosphere of 95% air, 5% CO2 and 95% relative humidity at 37 °C on RPMI 1640 (complete medium) in a cell culture cabinet (Heracell 150i; Thermo Fisher Scientific, Vantaa, Finland). The detached cells were seeded onto 96 well microtiter plates and exposed to the purified OPA, the final concentration of which ranged from 48.8 ng mL^−1 to 25 μg mL^−1 containing 10 levels in methanol. […] Then, the plates were analyzed by a microtiter plate reader (Fluoroskan Ascent, Thermo Scientific, Vantaa, Finland) at the excitation and emission wavelengths of 544 nm and 590 nm, respectively. […]

For data set [2], the system named is porcine kidney (PK-15) cells. The description is as above. To be noted: Sus scrofa; PK-15 cells, resazurin; read-out: IC50, cell proliferation. It counts as cell-based. The method, then:
as §1, §2

Data set [3] concerns human umbilical vein endothelial cells (HUVECs). The conditions noted are these: cited from earlier work.
For another data set, the system named is L1210 cell line. The conditions noted are these: cited from earlier work.

In brackets after ≈: the same amount, converted by molar mass. Where two headings read alike, the source gives them in different places. Bounds are passed on as bounds.

`CC(C)=C[C@H]1C[C@H](C)[C@]2(CC[C@]3(C)C[C@H]4[C@H](C(=O)C[C@@]4(C)O)/C(C=O)=C\C[C@H]32)O1` [OPA, ophiobolin A]: the EC50 in the data set on boar spermatozoa (0.5 h, boar spermatozoa, 30 min exposure at room temperature, read-out: Toxic endpoint EC50, Motility inhibition (30 min)) was at most 2.5 µg/mL; with boar spermatozoa (24 h, read-out: Toxic endpoint EC50, Motility inhibition (24 h), boar spermatozoa, 24 h exposure at room temperature), 0.25 µg/mL (≈ 0.624 µM). Also, the EC50 at 3 days in data set [1] turned out to be 0.1 µg/mL (≈ 0.25 µM). In addition, the IC50 in data set [2] lay in the range of 0.0488 to 0.0976 µg/mL (≈ 0.122 to 0.244 µM). In data set [3], the “IC50, reduction in the amount of viable cells” value is 32 µg/mL. Moreover, the “IC50, induced cell death” value in the data set with L1210 cell line was 120 µg/mL (≈ 300 µM).

The values above are taken from paper PMC4179164, “Ophiobolin A from Bipolaris oryzae Perturbs Motility and Membrane Integrities of Porcine Sperm and Induces Cell Death on Mammalian Somatic Cell Lines” (Toxins, 2014).
